Literature values in patent publication US9370492B2, “Solid pharmaceutical dosage forms comprising bisphosphonates and modified amino acid carriers” (EMISPHERE TECHNOLOGIES, INC., priority 2005, dated 2016).
Counter-ions that a name gives are not always drawn.

solubility in organic solvents (organic solvents): practically insoluble
solubility in water (water): freely soluble
Structure (SMILES): CCCCCN(C)CCC(O)(P(=O)(O)O)P(=O)(O)O [Ibandronate sodium, 3-(N-methyl-N-pentyl)amino-1-hydroxypropane-1,1-diphosphonic acid, monosodium salt, monohydrate]
